{
  "source": "ChEMBL document CHEMBL2311416",
  "about": "“The discovery of potent and selective 4-aminothienopyridines as B-Raf kinase inhibitors” (Bioorg Med Chem Lett, 2013)",
  "key": {"[1]": {"biological_target": "Serine/threonine-protein kinase B-raf (Homo sapiens, UniProt P15056)", "sequence (P15056 whole entry)": "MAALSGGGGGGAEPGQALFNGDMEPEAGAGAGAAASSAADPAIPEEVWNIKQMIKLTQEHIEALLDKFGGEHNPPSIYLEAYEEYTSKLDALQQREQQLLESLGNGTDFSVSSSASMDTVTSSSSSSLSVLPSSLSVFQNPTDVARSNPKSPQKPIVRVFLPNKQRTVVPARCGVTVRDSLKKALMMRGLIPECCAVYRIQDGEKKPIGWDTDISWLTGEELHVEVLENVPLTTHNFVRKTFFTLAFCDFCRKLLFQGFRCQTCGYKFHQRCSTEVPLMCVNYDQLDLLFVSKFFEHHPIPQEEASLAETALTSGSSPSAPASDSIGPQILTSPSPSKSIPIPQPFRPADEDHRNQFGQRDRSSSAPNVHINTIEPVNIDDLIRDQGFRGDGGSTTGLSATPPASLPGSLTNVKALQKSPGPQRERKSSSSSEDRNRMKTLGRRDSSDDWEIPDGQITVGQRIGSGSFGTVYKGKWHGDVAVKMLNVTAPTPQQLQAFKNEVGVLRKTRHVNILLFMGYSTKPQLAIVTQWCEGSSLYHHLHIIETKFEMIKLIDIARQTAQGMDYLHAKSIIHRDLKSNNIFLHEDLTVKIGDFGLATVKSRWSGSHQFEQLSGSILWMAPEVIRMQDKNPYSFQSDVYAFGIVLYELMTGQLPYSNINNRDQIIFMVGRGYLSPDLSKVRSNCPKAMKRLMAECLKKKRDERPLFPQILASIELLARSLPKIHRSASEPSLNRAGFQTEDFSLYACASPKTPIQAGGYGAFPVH", "experiment": "Inhibition of B-Raf (unknown origin) by fluorescence polarization assay"}, "Homo sapiens [2]": {"organism": "Homo sapiens", "experiment": "Selectivity ratio of IC50 for GSK3beta (unknown origin) to IC50 for B-Raf (unknown origin)"}, "Homo sapiens [3]": {"organism": "Homo sapiens", "experiment": "Selectivity ratio of IC50 for ALK5 (unknown origin) to IC50 for B-Raf (unknown origin)"}, "Homo sapiens [4]": {"organism": "Homo sapiens", "experiment": "Selectivity ratio of IC50 for BTK (unknown origin) to IC50 for B-Raf (unknown origin)"}, "Homo sapiens [5]": {"organism": "Homo sapiens", "experiment": "Selectivity ratio of IC50 for PKA (unknown origin) to IC50 for B-Raf (unknown origin)"}, "Homo sapiens [6]": {"organism": "Homo sapiens", "experiment": "Selectivity ratio of IC50 for ERBB2 (unknown origin) to IC50 for B-Raf (unknown origin)"}, "Homo sapiens [7]": {"organism": "Homo sapiens", "experiment": "Selectivity ratio of IC50 for IKK2 (unknown origin) to IC50 for B-Raf (unknown origin)"}, "Homo sapiens [8]": {"organism": "Homo sapiens", "experiment": "Selectivity ratio of IC50 for SYK (unknown origin) to IC50 for B-Raf (unknown origin)"}, "Homo sapiens [9]": {"organism": "Homo sapiens", "experiment": "Selectivity ratio of IC50 for ROCK1 (unknown origin) to IC50 for B-Raf (unknown origin)"}, "Homo sapiens [10]": {"organism": "Homo sapiens", "experiment": "Selectivity ratio of IC50 for SGK1 (unknown origin) to IC50 for B-Raf (unknown origin)"}, "Homo sapiens [11]": {"organism": "Homo sapiens", "experiment": "Selectivity ratio of IC50 for ZAP70 (unknown origin) to IC50 for B-Raf (unknown origin)"}, "Homo sapiens [12]": {"organism": "Homo sapiens", "experiment": "Selectivity ratio of IC50 for AKT1 (unknown origin) to IC50 for B-Raf (unknown origin)"}, "Homo sapiens [13]": {"organism": "Homo sapiens", "experiment": "Selectivity ratio of IC50 for JNK3 (unknown origin) to IC50 for B-Raf (unknown origin)"}, "Homo sapiens [14]": {"organism": "Homo sapiens", "experiment": "Selectivity ratio of IC50 for aurora-B (unknown origin) to IC50 for B-Raf (unknown origin)"}, "Homo sapiens [15]": {"organism": "Homo sapiens", "experiment": "Selectivity ratio of IC50 for EGFR (unknown origin) to IC50 for B-Raf (unknown origin)"}, "Homo sapiens [16]": {"organism": "Homo sapiens", "experiment": "Selectivity ratio of IC50 for aurora-A (unknown origin) to IC50 for B-Raf (unknown origin)"}, "Homo sapiens [17]": {"organism": "Homo sapiens", "experiment": "Selectivity ratio of IC50 for IGF1R (unknown origin) to IC50 for B-Raf (unknown origin)"}},
  "note": "pIC50: −log10 of the molar value.",
  "data": [
    {"smiles": "Nc1ncc(-c2cccnc2)c2scc(-c3cccc(NC(=O)Nc4ccc(OCc5ccccc5)cc4)c3)c12", "values": [
      {"measurement": "pIC50", "setting": "[1]", "value": 6.03}
    ]},
    {"smiles": "Nc1ncc(-c2cccnc2)c2scc(-c3cccc(NC(=O)c4ccccc4)c3)c12", "values": [
      {"measurement": "pIC50", "setting": "[1]", "value": 7.03}
    ]},
    {"smiles": "CC(C)(C)NC(=O)Nc1cccc(-c2csc3c(-c4cccnc4)cnc(N)c23)c1", "values": [
      {"measurement": "pIC50", "setting": "[1]", "value": 5.10}
    ]},
    {"smiles": "Nc1ncc(-c2cccnc2)c2scc(-c3cccc(NC(=O)C4CCCCC4)c3)c12", "values": [
      {"measurement": "pIC50", "setting": "[1]", "value": 5.81}
    ]},
    {"smiles": "Nc1ncc(-c2cccnc2)c2scc(-c3cccc(NC(=O)c4cccc(C(F)(F)F)c4)c3)c12", "values": [
      {"measurement": "Ratio IC50", "setting": "Homo sapiens [2]", "value": "> 40"},
      {"measurement": "Ratio IC50", "setting": "Homo sapiens [3]", "value": "> 40"},
      {"measurement": "Ratio IC50", "setting": "Homo sapiens [4]", "value": "> 40"},
      {"measurement": "Ratio IC50", "setting": "Homo sapiens [5]", "value": "> 40"},
      {"measurement": "Ratio IC50", "setting": "Homo sapiens [6]", "value": "> 40"},
      {"measurement": "Ratio IC50", "setting": "Homo sapiens [7]", "value": "> 40"},
      {"measurement": "Ratio IC50", "setting": "Homo sapiens [8]", "value": "> 40"},
      {"measurement": "Ratio IC50", "setting": "Homo sapiens [9]", "value": "> 40"},
      {"measurement": "pIC50", "setting": "[1]", "value": 8.29},
      {"measurement": "Ratio IC50", "setting": "Homo sapiens [10]", "value": "> 40"},
      {"measurement": "Ratio IC50", "setting": "Homo sapiens [11]", "value": "> 40"},
      {"measurement": "Ratio IC50", "setting": "Homo sapiens [12]", "value": "> 40"},
      {"measurement": "Ratio IC50", "setting": "Homo sapiens [13]", "value": "> 40"},
      {"measurement": "Ratio IC50", "setting": "Homo sapiens [14]", "value": "> 40"},
      {"measurement": "Ratio IC50", "setting": "Homo sapiens [15]", "value": "> 40"},
      {"measurement": "Ratio IC50", "setting": "Homo sapiens [16]", "value": "> 40"},
      {"measurement": "Ratio IC50", "setting": "Homo sapiens [17]", "value": "> 40"}
    ]},
    {"smiles": "Nc1ncc(-c2cccnc2)c2scc(-c3cccc(NC(=O)Nc4ccc(C(F)(F)F)cc4)c3)c12", "values": [
      {"measurement": "pIC50", "setting": "[1]", "value": 7.60}
    ]},
    {"smiles": "Nc1ncc(-c2cccnc2)c2scc(-c3cccc(NC(=O)Nc4c(F)cccc4F)c3)c12", "values": [
      {"measurement": "pIC50", "setting": "[1]", "value": 7.71}
    ]},
    {"smiles": "Nc1ncc(-c2cccnc2)c2scc(-c3cccc(NC(=O)NC4CCCCC4)c3)c12", "values": [
      {"measurement": "pIC50", "setting": "[1]", "value": 7.51}
    ]},
    {"smiles": "Nc1cccc(-c2csc3c(-c4cccnc4)cnc(N)c23)c1", "values": [
      {"measurement": "pIC50", "setting": "[1]", "value": "< 5.00"}
    ]},
    {"smiles": "Nc1ncc(-c2cccnc2)c2scc(-c3cccc(NC(=O)c4cc(F)ccc4F)c3)c12", "values": [
      {"measurement": "pIC50", "setting": "[1]", "value": 7.31}
    ]},
    {"smiles": "Nc1ncc(-c2cccnc2)c2scc(-c3cccc(NC(=O)Nc4cc(C(F)(F)F)ccc4F)c3)c12", "values": [
      {"measurement": "pIC50", "setting": "[1]", "value": 7.67}
    ]},
    {"smiles": "Nc1ncc(-c2cccnc2)c2scc(-c3cccc(NC(=O)Cc4cccs4)c3)c12", "values": [
      {"measurement": "pIC50", "setting": "[1]", "value": 7.35}
    ]},
    {"smiles": "Cc1noc(C)c1NC(=O)Nc1cccc(-c2csc3c(-c4cccnc4)cnc(N)c23)c1", "values": [
      {"measurement": "pIC50", "setting": "[1]", "value": 6.16}
    ]},
    {"smiles": "Nc1ncc(-c2cccnc2)c2scc(-c3cccc(NC(=O)Nc4ccccc4)c3)c12", "values": [
      {"measurement": "pIC50", "setting": "[1]", "value": 7.86}
    ]},
    {"smiles": "Cn1cccc1C(=O)Nc1cccc(-c2csc3c(-c4cccnc4)cnc(N)c23)c1", "values": [
      {"measurement": "pIC50", "setting": "[1]", "value": 5.38}
    ]},
    {"smiles": "Nc1ncc(-c2cccnc2)c2scc(-c3cccc(NC(=O)Nc4ccc(Cl)c(C(F)(F)F)c4)c3)c12", "values": [
      {"measurement": "Ratio IC50", "setting": "Homo sapiens [2]", "value": "> 100"},
      {"measurement": "Ratio IC50", "setting": "Homo sapiens [3]", "value": "> 100"},
      {"measurement": "Ratio IC50", "setting": "Homo sapiens [4]", "value": "> 100"},
      {"measurement": "Ratio IC50", "setting": "Homo sapiens [5]", "value": "> 100"},
      {"measurement": "Ratio IC50", "setting": "Homo sapiens [6]", "value": "> 100"},
      {"measurement": "Ratio IC50", "setting": "Homo sapiens [7]", "value": "> 100"},
      {"measurement": "Ratio IC50", "setting": "Homo sapiens [8]", "value": "> 100"},
      {"measurement": "Ratio IC50", "setting": "Homo sapiens [9]", "value": "> 100"},
      {"measurement": "pIC50", "setting": "[1]", "value": 7.78},
      {"measurement": "Ratio IC50", "setting": "Homo sapiens [10]", "value": "> 100"},
      {"measurement": "Ratio IC50", "setting": "Homo sapiens [11]", "value": "> 100"},
      {"measurement": "Ratio IC50", "setting": "Homo sapiens [12]", "value": "> 100"},
      {"measurement": "Ratio IC50", "setting": "Homo sapiens [13]", "value": "> 100"},
      {"measurement": "Ratio IC50", "setting": "Homo sapiens [14]", "value": "> 100"},
      {"measurement": "Ratio IC50", "setting": "Homo sapiens [15]", "value": "> 100"},
      {"measurement": "Ratio IC50", "setting": "Homo sapiens [16]", "value": "> 100"},
      {"measurement": "Ratio IC50", "setting": "Homo sapiens [17]", "value": "> 100"}
    ]},
    {"smiles": "Nc1ncc(-c2cccnc2)c2scc(-c3cccc(NC(=O)NCc4ccccc4)c3)c12", "values": [
      {"measurement": "pIC50", "setting": "[1]", "value": 7.68}
    ]},
    {"smiles": "COc1cccc(NC(=O)Nc2cccc(-c3csc4c(-c5cccnc5)cnc(N)c34)c2)c1", "values": [
      {"measurement": "pIC50", "setting": "[1]", "value": 8.02}
    ]},
    {"smiles": "Nc1ncc(-c2cccnc2)c2scc(-c3cccc(NS(=O)(=O)c4ccccc4)c3)c12", "values": [
      {"measurement": "pIC50", "setting": "[1]", "value": "< 5.00"}
    ]},
    {"smiles": "Nc1ncc(-c2cccnc2)c2scc(-c3cccc(NC(=O)Cc4ccccc4)c3)c12", "values": [
      {"measurement": "pIC50", "setting": "[1]", "value": 7.72}
    ]}
  ]
}
